From patent US6361981B1, “Production of ammonium acrylate” (Ciba Specialty Chemicals Water Treatments Limited, priority 1995, dated 2002)

Tests used:
[1] = tested on: nitrilase, a preferred enzyme on which initial experiments were conducted (particularly preferred enzyme: Rhodococcus rhodochrous NCIMB 40757); assay: Km, Ki of preferred nitrilase in whole cell form (Michaelis-Menten kinetics); assay type: biochemical
Procedure: The enzyme must have Km for (meth) acrylonitrile, that is whichever of acrylonitrile and (meth) acrylonitrile is being converted, below 500 μm and Ki for ammonium acrylate or ammonium (meth) acrylate, whichever is being produced, above 100,000 μM. In this specification Km and Ki are measured under conditions in which the enzyme obeys Michaelis-Menten kinetics, in particular at pH 7. A preferred measurement technique uses enzyme in whole cell form in 50 mM sodium phosphate buffer at pH 7 and 30° C. and using concentrations of acrylonitrile from 0.01 to 0.5 mM (for Km) and using 1.2 M ammonium acrylate and 0.079 to 0.554 mM acrylonitrile (for Ki).

[2] = tested on: nitrilase enzyme discussed in Biotech and Appl Biochem 11, 581 to 601 (1989); settings: literature value; read-out: Km for acrylonitrile; cited from earlier work
[3] = tested on: R rhodochrous K22 nitrilase; settings: literature value; read-out: Km for acrylonitrile; cited from earlier work

Compound	ratio Ki/Km ([1]; Ki for ammonium acrylate / Km for acrylonitrile)	Km [2] [µM]	Km [3] [µM]	Km ([1]; whole cell form, preferred technique: 50 mM sodium phosphate buffer, pH 7, 30° C., acrylonitrile 0.01 to 0.5 mM) [µM]
C=CC(=O)O [ammonium acrylate]	greater than 10,000	–	–	–
C=CC#N [acrylonitrile]	–	17000	1140	30.6
